Where “and” joins values, the source holds several entries; their conditions need not be identical. Equal values may be shown once.
Settings: 313.14 K, Liquid, Vibrating tube method

CCCCCCCCCC [decane]
Settings	mass density
4519 kPa	718.5 kg/m3
4530 kPa	718.5 kg/m3
4546 kPa	718.5 kg/m3
4557 kPa	718.5 kg/m3
4572 kPa	718.5 kg/m3
4582 kPa	718.5 kg/m3
4599 kPa	718.5 kg/m3
4610 kPa	718.6 kg/m3
4621 kPa	718.5 kg/m3
4637 kPa	718.6 kg/m3
4652 kPa	718.6 kg/m3
4667 kPa	718.6 kg/m3
4685 kPa	718.6 kg/m3
4705 kPa	718.7 kg/m3
4723 kPa	718.6 kg/m3
4741 kPa	718.8 kg/m3
4755 kPa	718.6 kg/m3
4774 kPa	718.6 kg/m3
4792 kPa	718.7 kg/m3
4814 kPa	718.7 kg/m3
4825 kPa	718.7 kg/m3
4842 kPa	718.7 kg/m3
4859 kPa	718.8 kg/m3
4873 kPa	718.8 kg/m3
4891 kPa	718.7 kg/m3
4913 kPa	718.8 kg/m3
4930 kPa	718.8 kg/m3
4945 kPa	718.8 kg/m3
4968 kPa	718.8 kg/m3
4991 kPa	718.9 kg/m3
5004 kPa	718.8 kg/m3
5027 kPa	718.9 kg/m3
5042 kPa	718.9 kg/m3
5063 kPa	718.9 kg/m3
5079 kPa	719 kg/m3
5092 kPa	719 kg/m3
5111 kPa	719 kg/m3
5130 kPa	719 kg/m3
5149 kPa	719 kg/m3
5165 kPa	718.9 kg/m3
5185 kPa	719 kg/m3
5207 kPa	719 kg/m3
5230 kPa	719.2 kg/m3
5251 kPa	719.2 kg/m3
5270 kPa	719.1 kg/m3
5300 kPa	719.2 kg/m3
5315 kPa	719.3 kg/m3
5316 kPa	719.2 kg/m3
5318 kPa	719.2 kg/m3
5320 kPa	719.2 kg/m3
5321 kPa	719.1 kg/m3 and 719.3 kg/m3
5322 kPa	719.2 kg/m3
5338 kPa	719.1 kg/m3
5355 kPa	719.1 kg/m3
5373 kPa	719.2 kg/m3
5385 kPa	719.3 kg/m3
5399 kPa	719.3 kg/m3
5414 kPa	719.1 kg/m3
5430 kPa	719.2 kg/m3
5444 kPa	719.2 kg/m3
5461 kPa	719.2 kg/m3
5478 kPa	719.2 kg/m3
5498 kPa	719.3 kg/m3
5515 kPa	719.3 kg/m3
5537 kPa	719.4 kg/m3
5552 kPa	719.4 kg/m3
5568 kPa	719.4 kg/m3
5586 kPa	719.4 kg/m3
5603 kPa	719.4 kg/m3
5622 kPa	719.4 kg/m3
5636 kPa	719.4 kg/m3
5655 kPa	719.4 kg/m3
5671 kPa	719.5 kg/m3
5686 kPa	719.4 kg/m3
5705 kPa	719.4 kg/m3
5721 kPa	719.5 kg/m3
5739 kPa	719.5 kg/m3
5753 kPa	719.5 kg/m3
5771 kPa	719.5 kg/m3
5788 kPa	719.6 kg/m3
5803 kPa	719.5 kg/m3
5819 kPa	719.6 kg/m3
5838 kPa	719.5 kg/m3
5852 kPa	719.6 kg/m3
5871 kPa	719.7 kg/m3
5889 kPa	719.6 kg/m3
5906 kPa	719.7 kg/m3
5927 kPa	719.6 kg/m3
5946 kPa	719.7 kg/m3
5963 kPa	719.6 kg/m3
5982 kPa	719.7 kg/m3
6002 kPa	719.7 kg/m3
6019 kPa	719.8 kg/m3
6042 kPa	719.8 kg/m3
6064 kPa	719.8 kg/m3
6084 kPa	719.8 kg/m3
6100 kPa	719.8 kg/m3
6120 kPa	719.9 kg/m3
6140 kPa	719.8 kg/m3
6162 kPa	719.8 kg/m3
6180 kPa	719.9 kg/m3
6198 kPa	719.9 kg/m3
6202 kPa	719.8 kg/m3
6204 kPa	719.9 kg/m3
6213 kPa	719.9 kg/m3
6230 kPa	719.9 kg/m3
6246 kPa	719.9 kg/m3
6262 kPa	720 kg/m3
6278 kPa	719.9 kg/m3
6295 kPa	720 kg/m3
6313 kPa	720 kg/m3
6332 kPa	720 kg/m3
6353 kPa	720.1 kg/m3
6367 kPa	720 kg/m3
6383 kPa	720 kg/m3
6398 kPa	720.1 kg/m3
6420 kPa	720.1 kg/m3
6438 kPa	720.1 kg/m3
6453 kPa	720 kg/m3
6472 kPa	720.1 kg/m3
6484 kPa	720 kg/m3
6500 kPa	720.1 kg/m3
6518 kPa	720.1 kg/m3
6531 kPa	720.1 kg/m3
6545 kPa	720.1 kg/m3
6559 kPa	720.1 kg/m3
6575 kPa	720.1 kg/m3
6586 kPa	720.2 kg/m3
6599 kPa	720.3 kg/m3
6611 kPa	720.2 kg/m3
6626 kPa	720.1 kg/m3
6643 kPa	720.3 kg/m3
6658 kPa	720.3 kg/m3
6675 kPa	720.3 kg/m3
6689 kPa	720.2 kg/m3
6708 kPa	720.2 kg/m3
6723 kPa	720.2 kg/m3
6742 kPa	720.4 kg/m3
6755 kPa	720.3 kg/m3
6767 kPa	720.4 kg/m3
6785 kPa	720.4 kg/m3
6815 kPa	720.3 kg/m3
6833 kPa	720.3 kg/m3
6865 kPa	720.4 kg/m3
6886 kPa	720.5 kg/m3
6901 kPa	720.4 kg/m3
6948 kPa	720.6 kg/m3
6966 kPa	720.6 kg/m3
6975 kPa	720.6 kg/m3
6989 kPa	720.6 kg/m3
7007 kPa	720.5 kg/m3
7019 kPa	720.6 kg/m3
7031 kPa	720.6 kg/m3
7045 kPa	720.6 kg/m3
7061 kPa	720.6 kg/m3
7077 kPa	720.6 kg/m3
7089 kPa	720.7 kg/m3
7101 kPa	720.6 kg/m3
7118 kPa	720.6 kg/m3
7136 kPa	720.7 kg/m3
7149 kPa	720.6 kg/m3
7165 kPa	720.7 kg/m3
7180 kPa	720.7 kg/m3
7195 kPa	720.7 kg/m3
7209 kPa	720.7 kg/m3
7226 kPa	720.7 kg/m3
7241 kPa	720.8 kg/m3
7252 kPa	720.6 kg/m3
7264 kPa	720.7 kg/m3
7279 kPa	720.8 kg/m3
7292 kPa	720.8 kg/m3
7306 kPa	720.8 kg/m3
7317 kPa	720.7 kg/m3
7332 kPa	720.8 kg/m3
7347 kPa	720.8 kg/m3
7360 kPa	720.9 kg/m3
7375 kPa	720.8 kg/m3
7392 kPa	720.9 kg/m3
7410 kPa	720.8 kg/m3
7423 kPa	720.9 kg/m3
7441 kPa	720.8 kg/m3
7455 kPa	720.9 kg/m3
7473 kPa	720.9 kg/m3
7487 kPa	721 kg/m3
7507 kPa	721 kg/m3
7523 kPa	721 kg/m3
7537 kPa	720.9 kg/m3
7553 kPa	720.9 kg/m3
7569 kPa	721.1 kg/m3
7590 kPa	721 kg/m3
7605 kPa	721 kg/m3
7621 kPa	721.1 kg/m3
7635 kPa	721.1 kg/m3
7652 kPa	721.1 kg/m3
7666 kPa	721.1 kg/m3
7683 kPa	721.1 kg/m3
7702 kPa	721 kg/m3
7717 kPa	721.1 kg/m3
7731 kPa	721.2 kg/m3
7750 kPa	721.2 kg/m3
7768 kPa	721.2 kg/m3
7782 kPa	721.1 kg/m3
7805 kPa	721.2 kg/m3
7820 kPa	721.3 kg/m3
7835 kPa	721.2 kg/m3
7851 kPa	721.3 kg/m3
7873 kPa	721.2 kg/m3
7890 kPa	721.3 kg/m3
7910 kPa	721.2 kg/m3
7922 kPa	721.3 kg/m3
7941 kPa	721.2 kg/m3
7959 kPa	721.4 kg/m3
8144 kPa	721.4 kg/m3
8162 kPa	721.4 kg/m3
8174 kPa	721.5 kg/m3
8184 kPa	721.6 kg/m3
8194 kPa	721.6 kg/m3
8205 kPa	721.5 kg/m3
8220 kPa	721.6 kg/m3
8237 kPa	721.5 kg/m3
8248 kPa	721.5 kg/m3
8262 kPa	721.5 kg/m3
8277 kPa	721.6 kg/m3
8293 kPa	721.5 kg/m3
8309 kPa	721.7 kg/m3
8321 kPa	721.6 kg/m3
8338 kPa	721.7 kg/m3
8352 kPa	721.6 kg/m3
8364 kPa	721.7 kg/m3
8383 kPa	721.6 kg/m3
8395 kPa	721.7 kg/m3
8410 kPa	721.7 kg/m3
8421 kPa	721.7 kg/m3
8435 kPa	721.8 kg/m3
8448 kPa	721.8 kg/m3
8462 kPa	721.7 kg/m3
8482 kPa	721.9 kg/m3
8494 kPa	721.8 kg/m3
8514 kPa	721.7 kg/m3
8524 kPa	721.8 kg/m3
8544 kPa	721.9 kg/m3
8559 kPa	721.8 kg/m3
8579 kPa	721.8 kg/m3
8592 kPa	721.8 kg/m3
8614 kPa	721.8 kg/m3
8629 kPa	721.8 kg/m3
8680 kPa	721.9 kg/m3
8691 kPa	722.1 kg/m3
8725 kPa	722.1 kg/m3
8740 kPa	722 kg/m3
8754 kPa	722 kg/m3
8773 kPa	722 kg/m3
8791 kPa	722 kg/m3
8807 kPa	722.1 kg/m3
8821 kPa	722 kg/m3
8835 kPa	721.9 kg/m3
8858 kPa	722.1 kg/m3
8876 kPa	722.2 kg/m3
8897 kPa	722.1 kg/m3
8911 kPa	722.1 kg/m3
8930 kPa	722.1 kg/m3
8944 kPa	722 kg/m3
8964 kPa	722 kg/m3
8980 kPa	722.1 kg/m3
9004 kPa	722.1 kg/m3
9023 kPa	722.2 kg/m3
9038 kPa	722.2 kg/m3
9053 kPa	722.2 kg/m3
9075 kPa	722.3 kg/m3
9092 kPa	722.2 kg/m3
9106 kPa	722.2 kg/m3
9121 kPa	722.3 kg/m3
9138 kPa	722.3 kg/m3

Source: the NIST ThermoML archive (doi:10.1021/je800110r)
